*1 amine or outer side, *2 acyl side, *3 side chain or, on linkers, in order; H or OH if unused. Where a SMILES comes first, the peptide text is derived from it. Bridges are numbered along the chain shown (N, C = ends). [ ]: non-standard residue; d: D form. The star is where a group is joined. ξ: configuration not given here. X19 = CC(C)C[C@H](NN(C)[C@H](Cc1ccccc1)N(C)[*:1])C(=O)[*:2]; Phe(4-CF3) = N[C@@H](Cc1ccc(C(F)(F)F)cc1)C(=O)O; Tyr(3-OMe) = COc1cc(C[C@H](N)C(=O)O)ccc1O; X9 = O=C([C@@H](CN[*:1])COCCO)[*:2]; Propyl(2,2-Me2,3-OH) = CC(C)(CO)C*; NMeF = CN[C@@H](Cc1ccccc1)C(=O)O; NMeGABA = CN(CCCC(=O)[*:2])[*:1]; NMeI = CC[C@H](C)[C@H](NC)C(=O)O; CH2CONHtBu = CC(C)(C)NC(=O)C*; NMeL = CN[C@@H](CC(C)C)C(=O)O; NMeV = CN[C@H](C(=O)O)C(C)C; ξIle = CC[C@H](C)C(N)C(=O)O; NMeA = CN[C@@H](C)C(=O)O; Piperidide = C1CCN(*)CC1; X8 = C1COC[C@@H](C*)N1; NBuGly = CCCCNCC(=O)O; NPrGly = CCCNCC(=O)O; X3 = C[C@H](O)C*; Sar = CNCC(=O)O; tBu = CC(C)(C)*
assay: in vitro; conditions: human, Caco-2, Caco-2 (cm/sec)

Row | SMILES | Papp [×10⁻⁶ cm/s]
1 | CCCCN1CC(=O)N(C)[C@@H](Cc2ccccc2)C(=O)N(C)[C@@H](CC(C)C)C(=O)N[C@@H](COC[C@@H]2COCCN2)C(=O)N(C)[C@@H](CC(C)C)C(=O)N[C@H](C(=O)N2CCCCC2)CC(=O)N(C)CC(=O)N(C)[C@@H](CC(C)C)C(=O)NC([C@@H](C)CC)C(=O)N(C)[C@@H](CC(C)C)C(=O)N[C@@H]([C@@H](C)O)C1=O (stereo partly drawn) [AP245] ([Sar][NMeL][ξIle][NMeL]T[NBuGly][NMeF][NMeL]S(X8)[NMeL]D-Piperidide; lactam N-11) | 0.1
2 | CC[C@H](C)[C@H]1C(=O)N[C@@H]([C@@H](C)O)C(=O)N(C)CC(=O)N(C)[C@@H](C)C(=O)N[C@H](C(=O)N2CCCCC2)CC(=O)N(C)[C@@H](C)C(=O)N[C@@H](C(C)C)C(=O)N(C)[C@@H](CC(C)C)C(=O)N(C)[C@@H](Cc2ccccc2)C(=O)NC(COc2cccc(Cl)c2)C(=O)N(C)[C@@H](Cc2ccccc2)C(=O)N1C (stereo partly shown) [pd186] | 1.8
3 | CC[C@H](C)[C@@H]1NC(=O)[C@H](CC(C)C)N(C)C(=O)CCCN(C)C(=O)C[C@@H](C(=O)N2CCCCC2)NC(=O)[C@H](CC(C)C)N(C)C(=O)[C@H](CC(C)C)N(C)C(=O)[C@H]([C@@H](C)O)NC(=O)[C@H](CC(C)C)N(C)C(=O)[C@H](COCC(C)(C)CO)NC(=O)[C@H](Cc2ccccc2)N(C)C(=O)[C@H](Cc2ccccc2)N(C)C1=O [AP120] ([NMeGABA][NMeL]I[NMeF][NMeF]S(Propyl(2,2-Me2,3-OH))[NMeL]T[NMeL][NMeL]D-Piperidide; lactam N-11) | 1.1
4 | CC[C@H](C)[C@H]1C(=O)N[C@@H]([C@@H](C)O)C(=O)N(C)CC(=O)N(C)[C@@H](CC(C)C)C(=O)N[C@H](C(=O)N2CCCCC2)CC(=O)N(C)[C@@H](C(C)C)C(=O)N[C@@H](CC(C)C)C(=O)N(C)[C@@H](CC(C)C)C(=O)N(C)[C@@H](Cc2ccccc2)C(=O)N[C@@H](COC[C@H](C)O)C(=O)N(C)[C@@H](Cc2ccccc2)C(=O)N1C [AP66] ([NMeV]L[NMeL][NMeF]S(X3)[NMeF][NMeI]T[Sar][NMeL]D-Piperidide; lactam N-11) | 0.68
5 | CC(C)C[C@@H]1NC(=O)[C@H](Cc2ccccc2)N(C)C(=O)[C@@H](C(C)C)NC(=O)C[C@@H](C(=O)N2CCCCC2)NC(=O)[C@H](C)N(C)C(=O)[C@H](CC(C)C)N(C)C(=O)[C@H](COC(C)(C)C)NC(=O)[C@H](CC(C)C)N(C)C(=O)CN(C)C(=O)[C@H](Cc2ccc(O)cc2)NC(=O)[C@H](CC(C)C)N(C)C1=O [pd127] ([dV][NMeF]L[NMeL]Y[Sar][NMeL]S(tBu)[NMeL][NMeA]D-Piperidide; lactam N-11) | 0.13
6 | COc1cc(C[C@@H]2NC(=O)[C@H](CC(C)C)N(C)C(=O)CN(C)C(=O)[C@H]([C@@H](C)O)NC(=O)[C@H](CC(C)C)N(C)C(=O)[C@H](CC(C)C)NN(C)[C@H](Cc3ccccc3)N(C)C(=O)[C@@H](C(C)C)NC(=O)C[C@@H](C(=O)N3CCCCC3)NC(=O)[C@H](CC(C)C)N(C)C(=O)[C@H](CC(C)C)N(C)C2=O)ccc1O [Compound E01] ([dV][X19][NMeL]T[Sar][NMeL][Tyr(3-OMe)][NMeL][NMeL]D-Piperidide; lactam N-10) | 1.1
7 | CCCCN1CC(=O)N(C)[C@@H](CC(C)C)C(=O)N[C@@H]([C@@H](C)CC)C(=O)N(C)[C@@H](Cc2ccccc2)C(=O)N[C@@H]([C@@H](C)O)C(=O)N(CCCC)CC(=O)N(C)[C@@H](CC(C)C)C(=O)N(C)[C@@H](Cc2ccccc2)C(=O)N[C@@H](COCC(=O)NC(C)(C)C)C(=O)N(C)[C@@H](C)C(=O)N[C@H](C(=O)N2CCCCC2)CC1=O [AP19] ([NBuGly][NMeL]I[NMeF]T[NBuGly][NMeL][NMeF]S(CH2CONHtBu)[NMeA]D-Piperidide; lactam N-11) | 0.88
8 | CCCN1CC(=O)N(C)[C@@H](CC(C)C)C(=O)N[C@@H](CC(C)C)C(=O)N(C)[C@@H](Cc2ccccc2)C(=O)N(C)[C@@H](CC(C)C)C(=O)N[C@H](C(=O)N2CCCCC2)CC(=O)N[C@H](CC(C)C)C(=O)N(C)[C@@H](Cc2ccccc2)C(=O)NC[C@@H](COCCO)C(=O)N(C)[C@@H](CC(C)C)C(=O)N[C@@H]([C@@H](C)O)C1=O [AP127] ([dL][NMeF][X9][NMeL]T[NPrGly][NMeL]L[NMeF][NMeL]D-Piperidide; lactam N-11) | 0.3

same assay, conditions: human, Caco-2, Caco-2 (cm/sec) Papp

Row | SMILES | Papp [×10⁻⁶ cm/s]
9 | CC(C)C[C@@H]1NC(=O)[C@H]([C@@H](C)O)NC(=O)[C@H](CC(C)C)N(C)C(=O)C[C@@H](C(=O)N2CCCCC2)NC(=O)[C@H](COC(C)(C)C)NC(=O)[C@H](Cc2ccccc2)NC(=O)[C@H](C)N(C)C(=O)[C@H](Cc2ccccc2)NC(=O)CN(C)C(=O)[C@H](Cc2ccccc2)N(C)C(=O)[C@H](Cc2ccccc2)N(C)C1=O [pd245] ([NMeL]TL[NMeF][NMeF][Sar]F[NMeA]FS(tBu)D-Piperidide; lactam N-11) | 0.019

same assay, conditions: human, Caco-2, Caco-2 (membrane permeability)

Row | SMILES | Papp [×10⁻⁶ cm/s]
10 | CCCN1CC(=O)N(C)[C@@H](CC(C)C)C(=O)N[C@H](C(=O)N2CCCCC2)CC(=O)N(C)[C@@H](CC(C)C)C(=O)N[C@@H](Cc2ccc(C(F)(F)F)cc2)C(=O)N(C)[C@@H](CC(C)C)C(=O)N(C)[C@@H](CC(C)C)C(=O)N[C@@H](CCC(=O)NC)C(=O)N(C)[C@@H](Cc2ccccc2)C(=O)N(C)[C@@H]([C@@H](C)CC)C(=O)N[C@@H]([C@@H](C)O)C1=O [Compound J04] ([NMeL][Phe(4-CF3)][NMeL][NMeL]E(NHMe)[NMeF][NMeI]T[NPrGly][NMeL]D-Piperidide; lactam N-11) | 0.087

Source: US20230096766A1, “AMINO ACID HAVING FUNCTIONAL GROUP CAPABLE OF INTERMOLECULAR HYDROGEN BONDING, PEPTIDE COMPOUND CONTAINING SAME AND METHOD FOR PRODUCTION THEREOF” (Chugai Seiyaku Kabushiki Kaisha, priority 2018, published 2023)
